Experimental data taken from PMC4526662, “A Pyranose-2-Phosphate Motif Is Responsible for Both Antibiotic Import and Quorum-Sensing Regulation in Agrobacterium tumefaciens” (PLoS Pathogens, 2015).
“And” between values parts separate entries of the source, which are not always exact repeats. Identical values can stand only once. “Also recorded” adds a separate entry of the source.

Key:
AccA [1] = biological target: T1, AccA (Agrobacterium fabrum, UniProt Q52012); experiment: biochemical; format: binding, Agrobacterium tumefaciens C58; conditions: for fluorescence intensity / autofluorescence signal change on incubating AccA with ligand: tryptophan fluorescence, excitation 295 nm, emission 335 nm
Experimental: Ligand binding to the protein AccA was investigated using tryptophan fluorescence spectroscopy, a method exploiting significant conformational changes accompanying the binding.
All experiments were performed at 22°C in 3 x 15 mm quartz cuvettes using Cary Eclypse spectrofluorometer (Varian) in 25 mM Tris-HCl pH 8.0 and 150 mM NaCl with a fixed amount of proteins (2 μM) and increasing concentrations of ligand. […] The data were analysed using Origin 7 software and fitted to the equation f = ΔFluorescencemax*abs(x)/(K D+abs(x)).

AccA [2] = biological target: T1, AccA; experiment: AccA isothermal titration microcalorimetry; format: binding, Agrobacterium tumefaciens C58; conditions: for binding to AccA detected by microcalorimetry / TΔS / ΔG / ΔH / N (binding stoichiometry) / K (association binding constant): ITC; for K (association binding constant): Ka in M-1
Experimental: (§1) Isothermal titration microcalorimetry experiments were performed with an ITC200 isothermal titration calorimeter from MicroCal (GE Healthcare). The experiments were carried out at 20°C for AccA and 25°C for AccR. […] For agrocin 84 experiment, we inverted the protein and ligand positions: the ligand was in the cell and the protein in the syringe. This strategy was chosen to overcome the small amount of agrocin 84. The experimental data were fitted to theoretical titration curves with software supplied by MicroCal (ORIGIN). This software uses the relationship between the heat generated by each injection and ΔH (enthalpy change in Kcal.Mol-1), Ka (the association binding constant in M-1), n (the number of binding sites), total protein concentration and free and total ligand concentrations.
Target sequence in this assay (Q52012 entry or part of it): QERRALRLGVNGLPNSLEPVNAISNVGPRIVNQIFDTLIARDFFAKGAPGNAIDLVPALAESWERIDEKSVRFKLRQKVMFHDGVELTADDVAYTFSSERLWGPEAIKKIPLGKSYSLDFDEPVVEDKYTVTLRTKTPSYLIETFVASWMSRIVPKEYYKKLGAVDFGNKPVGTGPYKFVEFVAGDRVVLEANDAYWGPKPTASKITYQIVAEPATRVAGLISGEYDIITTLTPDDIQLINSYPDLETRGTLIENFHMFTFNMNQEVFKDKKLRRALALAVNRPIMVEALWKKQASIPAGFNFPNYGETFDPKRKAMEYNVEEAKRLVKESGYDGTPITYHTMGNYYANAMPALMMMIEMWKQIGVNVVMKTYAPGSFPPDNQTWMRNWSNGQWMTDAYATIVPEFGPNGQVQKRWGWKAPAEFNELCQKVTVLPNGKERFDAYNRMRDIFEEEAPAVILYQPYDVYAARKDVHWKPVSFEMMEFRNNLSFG

A. tumefaciens C58 [3] = experiment: Quantification of OC8HSL quorum-sensing signal in cell cultures; format: cell-based, Agrobacterium tumefaciens; conditions: 1 mM compound
Experimental: (§2) In complementation assay, the accF wild-type gene was cloned into p6000 [50] plasmid and electroporated into the accF mutant. Rifampicin-resistant recipient strain C58.00 was derived from A. tumefaciens C58 cured of the At and Ti plasmids. A. tumefaciens was cultivated at 28°C in AB minimal medium containing ammonium chloride (1 g/L) and mannitol (2 g/L), or in Luria-Bertani modified medium (LBm; NaCl 5 g/L). The antibiotics gentamycin and rifampicin were added at 25 μg/mL and 100 μg/mL, respectively.
(§3) Overnight LBm cultures of recipient (C58.00) and donor (C58 control) cells were mixed in an equal ratio (1:1). 10 μl of this mix were transferred into 140 μl of AB medium supplemented with mock or 1 mM of agrocinopine A, L-arabinose-2-phosphate and glucose-2-P for static liquid cultures of 24, 48, 72 and 96 hours. Suspension dilutions of these cultures were spotted onto selective agar media to enumerate the different bacterial populations (donor, recipient and Ti plasmid transconjugants). In parallel, to quantify OC8HSLs, aliquots of cell cultures were spotted onto TLC plates (RP-18/UV254, Macherey-Nagel) and incubated with the OC8HSL-bioindicator strain A. tumefaciens NT1(pZLR4) as previously described. Tested samples were compared with a calibration curve obtained with pure OC8HSL (Sigma-Aldrich).

A. tumefaciens C58 [4] = experiment: Ti plasmid conjugation assay; format: cell-based, Agrobacterium tumefaciens; conditions: for Ti plasmid transconjugants: C58 control donor with recipient C58.00, 1 mM compound; for Ti plasmid conjugation: 1 mM compound
Experimental: as §2, §3

AccR = biological target: T2, AccR (Agrobacterium fabrum, UniProt P32104); experiment: AccR isothermal titration microcalorimetry; format: binding, Agrobacterium tumefaciens C58
T2 construct: 6-His tag (C); made in house; host or cells: E. coli C41
Experimental: The question arose about their biological role in A. tumefaciens, especially in relation to regulation of the AccR/quorum-sensing pathway that controls dissemination of the Ti plasmid. We first measured the affinity of the synthetic agrocinopine A towards purified recombinant AccR by isothermal titration microcalorimetry.
as §1

[5] = biological target: AccR, master transcriptional regulator (transcriptional repressor of the DeoR family) of Agrobacterium tumefaciens C58 (Agrobacterium tumefaciens C58); experiment: native gel or EMSA; native gel electrophoresis of purified recombinant AccR in solution; conditions not given, no figure or methods section for this gel
A. tumefaciens C58 [6] = experiment: Uptake assay: growth with compound as sole carbon source; format: cell-based, Agrobacterium tumefaciens; conditions: 1 mM in AB media, OD600 monitored for 48 hours
Experimental: This experiment confirmed that the transporter can uptake bulky synthetic molecules such as agrocinopine 3’-O-benzoate into the cell as observed for the toxin agrocin 84, which is also a relatively large molecule.
A single colony of Agrobacterium tumefaciens C58 with pTiC58 derivative pTi::Gm was grown overnight at 28°C in AB media supplemented with mannitol (2 g/L) and gentamicin 25 μg.ml-1. 20 ml of AB media in presence of a carbon source (agrocinopine 3’-O-benzoate or L-arabinose-2-phosphate at a final concentration of 1 mM) or in absence of any carbon source and supplemented with gentamicin (25 μg.ml-1) were inoculated at an initial OD600 of 0.03 and the OD was monitored for 48 hours.

[7] = AccA 2 μM, 22°C, 25 mM Tris-HCl pH 8.0, 150 mM NaCl, one binding site model, ND: no signal detected, read-out: apparent KD (autofluorescence titration)
[8] = accF mutant complemented with accF wild type (p6000)

T2 sequence (P32104 whole entry): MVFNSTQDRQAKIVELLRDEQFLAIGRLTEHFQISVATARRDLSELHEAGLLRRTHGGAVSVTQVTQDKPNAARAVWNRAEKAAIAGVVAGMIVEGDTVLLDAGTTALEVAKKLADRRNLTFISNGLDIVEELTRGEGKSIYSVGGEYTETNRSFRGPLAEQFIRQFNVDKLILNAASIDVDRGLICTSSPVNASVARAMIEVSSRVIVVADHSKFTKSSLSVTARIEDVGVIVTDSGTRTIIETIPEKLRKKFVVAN
AccR, master transcriptional regulator (transcriptional repressor of the DeoR family) of Agrobacterium tumefaciens C58 (natural protein), sequence (O30540 whole entry): as the sequence (P32104 whole entry) above

OC1OC[C@H](O)[C@H](O)[C@H]1O (mixture of isomers) [L-arabinose, reference compound]
fluorescence intensity / autofluorescence signal change on incubating AccA with ligand (AccA [1]): No fluorescence intensity change
binding to AccA detected by microcalorimetry (AccA [2]): No signal detected; also recorded: could not detect any binding

O=C[C@H](OP(=O)(O)O)[C@@H](O)[C@@H](O)CO [L-arabinose-2-phosphate]
accumulation of quorum-sensing molecules (A. tumefaciens C58 [3]; accF defective mutant): still observed
Kd (AccA [1]; [7]): 2930 ± 660 nM
Ti plasmid transconjugants (A. tumefaciens C58 [4]): could also be detected
Ti plasmid conjugation (A. tumefaciens C58 [4]; accF defective mutant donor): still activated
Kd (AccA [2]): 1330 ± 120 nM
TΔS (AccA [2]; 20°C): -3.2E3
ΔG (AccA [2]; 20°C): -7.9 kcal/mol
ΔH (AccA [2]; 20°C): -1.11E4 ± 168 cal/mol
N (binding stoichiometry) (AccA [2]; 20°C, one binding site model): 0.95 ± 0.01
K (association binding constant) (AccA [2]; 20°C): 7.54E5 ±6.5E4
Kd (AccR): 110 ± 60 nM
n1 (stoichiometry, first step) (AccR; ITC, 25°C): 0.4
n2 (stoichiometry, second step) (AccR; ITC, 25°C): 0.9

AccR, master transcriptional regulator (transcriptional repressor of the DeoR family) of Agrobacterium tumefaciens C58 (natural protein)
stoichiometry N [5]: 2

CC(C)OP(=O)(O)O[C@H]1C(O)OC[C@H](O)[C@@H]1O (stereo partly drawn) [L-arabinose-2-isopropylphosphate]
Kd (AccA [1]; [7]): 4790 ± 600 nM
Kd (AccA [2]): 2200 ± 580 nM
TΔS (AccA [2]; 20°C): -8E3 cal/mol/K
ΔG (AccA [2]; 20°C): -7.6 kcal/mol
ΔH (AccA [2]; 20°C): -1.56E4 ± 493 cal/mol
N (binding stoichiometry) (AccA [2]; 20°C, one binding site model): 1.08 ±0.03
K (association binding constant) (AccA [2]; 20°C): 4.72E5 ± 1.2E5

O=P(O)(O)O[C@H]1C(O)O[C@H](CO)[C@@H](O)[C@@H]1O (stereo partly drawn)
Kd (AccA [1]): 2500 nM

agrocin 84 [reference compound]
fluorescence intensity / autofluorescence signal change on incubating AccA with ligand (AccA [1]): no signal was measured
Kd (AccA [2]; 20°C, one binding site model, read-out: mean KD (isothermal titration microcalorimetry)): 1500 ± 410 nM
TΔS (AccA [2]; 20°C): -3.6E4
ΔG (AccA [2]; 20°C): -7.7 kcal/mol
ΔH (AccA [2]; 20°C): -43.7 ± 3.8 kcal/mol
N (binding stoichiometry) (AccA [2]; 20°C, one binding site model): 0.8 ± 0.043
K (association binding constant) (AccA [2]; 20°C): 6.83E5 ± 1.8E5

O=P(O)(O)O[C@H]1O[C@H](CO)[C@@H](O)[C@H](O)[C@H]1O [glucose-1-phosphate, reference compound]
fluorescence intensity / autofluorescence signal change on incubating AccA with ligand (AccA [1]): no autofluorescence signal changes

Nc1ncnc2c1ncn2[C@@H]1O[C@H](COP(=O)(O)O)[C@@H](O)[C@H]1O [adenosine monophosphate, reference compound]
binding to AccA detected by microcalorimetry (AccA [2]): could not detect any binding

O=C[C@H](O)[C@@H](O)[C@H](O)[C@H](O)COP(=O)(O)O [glucose-6-phosphate, reference compound]
fluorescence intensity / autofluorescence signal change on incubating AccA with ligand (AccA [1]): no autofluorescence signal changes

O=C(OC1C(OP(=O)(O)OC2C(O)OCC(O)C2O)C(CO)OC1(CO)OC1OC(CO)C(O)C(O)C1O)c1ccccc1 (stereo not drawn) [agrocinopine 3’-O-benzoate]
Kd (AccA [1]; apparent KD (autofluorescence titration), AccA 2 μM, 22°C, 25 mM Tris-HCl pH 8.0, 150 mM NaCl, one binding site model, ND: no signal detected): 5880 ± 1600 nM
bacterial growth with compound as sole carbon source (A. tumefaciens C58 [6]): used as nutrient by the bacteria as indicated by bacterial growth
Kd (AccA [2]): 7500 ± 2200 nM
fold lower affinity with AccA in comparison with agrocinopine A (AccA [2]; ITC KD values): 25 fold
TΔS (AccA [2]; 20°C): 3.2E3
ΔG (AccA [2]; 20°C): -6.9 kcal/mol
ΔH (AccA [2]; 20°C): -3.7E3 ± 374 cal/mol
N (binding stoichiometry) (AccA [2]; 20°C, one binding site model): 0.99 ± 0.06
K (association binding constant) (AccA [2]; 20°C): 1.33E5

phosphate [reference compound]
fluorescence intensity / autofluorescence signal change on incubating AccA with ligand (AccA [1]): No fluorescence intensity change

O=P(O)(OC1C(O)OCC(O)C1O)OC1C(CO)OC(CO)(OC2OC(CO)C(O)C(O)C2O)C1O (stereo not drawn) [agrocinopine A]
accumulation of quorum-sensing molecules (A. tumefaciens C58 [3]; accF defective mutant): abolished
accumulation of quorum-sensing molecules (A. tumefaciens C58 [3]; [8]): restored
Kd (AccA [1]; [7]): 1320 nM and 1300 nM
Ti plasmid transconjugants (A. tumefaciens C58 [4]): could also be detected
Ti plasmid conjugation (A. tumefaciens C58 [4]; accF defective mutant donor): abolished
Ti plasmid conjugation (A. tumefaciens C58 [4]; [8]): restored
Kd (AccA [2]): 300 ± 30 nM
TΔS (AccA [2]; 20°C): -2.6E3
ΔG (AccA [2]; 20°C): -8.6 kcal/mol
ΔH (AccA [2]; 20°C): -1.12E4 ± 98 cal/mol
N (binding stoichiometry) (AccA [2]; 20°C, one binding site model): 1 ± 0.006
K (association binding constant) (AccA [2]; 20°C): 2.99E6 ± 2.9E5
affinity towards purified recombinant AccR (AccR; ITC): no affinity was detected
